According to US7678787B2, “Pyrrolobenzodiazepine pyridine carboxamides and derivatives as follicle-stimulating hormone receptor antagonists” (Wyeth, priority 2005, dated 2010):
Read-outs that look alike come from different tables or passages of the source.

Columns and labels:
[1] = molecular target: T1, human FSH receptor (Homo sapiens, UniProt P23945); test: FSH receptor-dependent CRE-luciferase reporter gene assay (CHO FSH-R 6CRE-Luc cells); format: cell-based
T1 construct: host or cells: CHO-K1 (CHO FSH-R 6CRE-Luc, 1D7 cells)
T1 sequence (P23945 18-695): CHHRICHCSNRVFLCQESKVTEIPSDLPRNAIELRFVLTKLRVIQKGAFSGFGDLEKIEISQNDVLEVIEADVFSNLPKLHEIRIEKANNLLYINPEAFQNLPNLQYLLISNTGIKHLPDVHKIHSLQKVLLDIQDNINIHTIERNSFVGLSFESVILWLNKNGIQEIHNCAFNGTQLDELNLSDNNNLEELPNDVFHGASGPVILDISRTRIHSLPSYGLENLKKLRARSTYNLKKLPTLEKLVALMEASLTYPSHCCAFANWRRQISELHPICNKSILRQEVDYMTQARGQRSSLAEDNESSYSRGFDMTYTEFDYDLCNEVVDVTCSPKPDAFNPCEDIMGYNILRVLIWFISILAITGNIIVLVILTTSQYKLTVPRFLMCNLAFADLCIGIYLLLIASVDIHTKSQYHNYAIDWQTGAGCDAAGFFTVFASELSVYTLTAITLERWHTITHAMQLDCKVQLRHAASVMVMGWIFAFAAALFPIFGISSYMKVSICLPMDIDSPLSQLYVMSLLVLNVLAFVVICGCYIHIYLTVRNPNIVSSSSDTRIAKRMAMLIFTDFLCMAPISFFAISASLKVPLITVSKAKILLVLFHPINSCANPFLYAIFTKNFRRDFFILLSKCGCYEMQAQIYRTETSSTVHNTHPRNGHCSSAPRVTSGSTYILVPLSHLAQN

[2] = molecular target: T1, human FSH receptor; test: FSH receptor-dependent CRE-luciferase reporter gene assay (CHO FSH-R 6CRE-Luc cells); format: cell-based; conditions: dose-response format in presence of EC50 of purified human FSH; * n=3, ** n=2 averages
Outline: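 CHO-K1 cells stably expressing the recombinant human FSH receptor and a luciferase reporter controlled by 6 cAMP response elements were seeded at 50,000 cells/100 μl/well in 96-well white opaque plates. Antagonists were tested in dose-response against the EC50 of purified human FSH for 4 hours at 37° C, and luciferase chemiluminescence was read with a LucScreen kit.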

[3] = molecular target: T2, hFSH-R (Homo sapiens, UniProt P23945); test: cAMP accumulation (RIA) in CHO-3D2 cells (hFSH-R), hFSH-induced; format: cell-based; conditions: inhibition of cAMP accumulation induced by hFSH at EC20, CHO-3D2 cells
T2 construct: expressed in transfected cells; host or cells: CHO-3D2 cells (CHO-K1 parental line)
T2 sequence (P23945 18-695): T1 sequence (P23945 18-695)
Experimental: IN VITRO BIO-ASSAY OF AGONISTS AND ANTAGONISTS TO THE FSH RECEPTOR. SELECTIVITY AND DEPENDENCY OF AGONISTS AND ANTAGONISTS TO THE FSH RECEPTOR
Compound Vehicle: Stock compounds were solubilized in 100% DMSO (Sigma-Aldrich Chemical Co., St. Louis, Mo.) at a concentration of 30 mM. The compounds subsequently were diluted in sterile assay medium consisting of Opti-MEM® I (Invitrogen/Life Technologies, Carlsbad, Calif.) with 0.1% (w/v) BSA (Sigma-Aldrich) prior to use in the bio-assay. The final concentration of DMSO in the assay was 0.1%.
Plated cells are then incubated at 37° C. in a humidified 5% CO2/95% air atmosphere.
Assay: On the day of the assay, cells were washed three times with 100 μl/well of assay medium consisting of Opti-MEM® I (Invitrogen/Life Technologies) with 0.1% (w/v) BSA (Sigma-Aldrich). Medium was removed and 100 μl of assay medium was added to each well. Plates were incubated for an additional 30 minutes at 37° C. […] Reactions were terminated by the addition of 50 μl of 0.2N hydrochloric acid to each well and cAMP-accumulation was measured by radioimmunoassay (RIA) using a commercially available kit (Amersham Biosciences, Piscataway, N.J.).
All test compounds were evaluated in a dose-response paradigm ranging from 0.01 to 30 μM. Controls and test compounds were evaluated in quadruplicate in a 96-well format.
Along with the test compounds, FSH was run also as a postive control in the agonist mode using concentrations ranging from 0.1-1000 ng/ml.
Data were analyzed by one-way analysis of variance and significant differences between treatments and control determined by Least Significant Difference test.
Test compounds were compared to the effect of purified human FSH.

[4] = 2-dose format, test concentration in parentheses = 30 μM, percent inhibition of response to EC50 of FSH, read-out: CRE % inhibition

| Compound | inhibition at 30 µM [1, 4] | melting point | other results |
| --- | --- | --- | --- |
| Cc1cc(C(=O)N2Cc3ccc(C(=O)NCc4cccnc4)n3Cc3ccccc32)ccc1-c1c(C)cccc1C [Example 10] | 25% |  |  |
| Cc1cc(C(=O)N2Cc3ccc(C(=O)NCc4cccnc4)n3Cc3ccccc32)ccc1-c1cccc(Cl)c1 [Example 23] | 36% |  |  |
| Cc1cc(C(=O)N2Cc3ccc(C(=O)NCc4cccnc4)n3Cc3ccccc32)ccc1-c1ccc(Cl)c(Cl)c1 [Example 25] | 11% |  |  |
| O=C(c1ccccc1)c1ccccc1-c1ccc(C(=O)N2Cc3ccc(C(=O)NCc4cccnc4)n3Cc3ccccc32)cc1 [Example 60] | 29% | 198 to 199 °C |  |
| COc1ccccc1-c1ccc(S(=O)(=O)N2Cc3ccc(C(=O)NCc4cccnc4)n3Cc3ccccc32)cc1 [Example 71] | 17.3% |  |  |
| O=C(NCc1cccnc1)c1ccc2n1Cc1ccccc1N(S(=O)(=O)c1ccc(-c3ccccc3Cl)cc1)C2 [Example 72] | 6.61% |  |  |
| O=C(c1ccccc1)c1ccc(C(=O)N2Cc3ccc(C(=O)NCc4cccnc4)n3Cc3ccccc32)cc1 [Example 75] |  | 211 to 213 °C (dec.) | IC50 [2]: > 30000 nM; IC50 [3]: 21000 nM |
| O=C(NCc1cccnc1)c1ccc2n1Cc1ccccc1N(C(=O)c1ccccc1C(F)(F)F)C2 [Example 82] | 2.4% | 157 to 158 °C |  |
| O=C(NCc1cccnc1)c1ccc2n1Cc1ccccc1N(C(=O)c1c(F)cccc1F)C2 [Example 86] | 40% | 103 to 109 °C |  |
| COC(=O)c1ccc(C(=O)N2Cc3ccc(C(=O)NCc4cccnc4)n3Cc3ccccc32)cc1 [Example 87, METHYL 4-{[3-{[(PYRIDIN-3-YLMETHYL)AMINO]CARBONYL}-5H-PYRROLO[2,1-C][1,4]BENZODIAZEPIN-10(11H)-YL]CARBONYL}BENZOATE] | 38% | 170 to 172 °C |  |
| N#Cc1ccc(C(=O)N2Cc3ccc(C(=O)NCc4cccnc4)n3Cc3ccccc32)cc1 [Example 90] | 13% |  |  |
| O=C(NCc1cccnc1)c1ccc2n1Cc1ccccc1N(C(=O)c1ccc(Cl)cc1)C2 [Example 91] | 37% |  |  |
| Cc1ccccc1C(=O)N1Cc2ccc(C(=O)NCc3cccnc3)n2Cc2ccccc21 [Example 94] | 17% |  |  |
| O=C(NCc1cccnc1)c1ccc2n1Cc1ccccc1N(C(=O)c1cc(F)cc(F)c1)C2 [Example 95] | 45% | 138 to 140 °C |  |
| O=C(NCc1cccnc1)c1ccc2n1Cc1ccccc1N(C(=O)c1ccccc1F)C2 [Example 97] | 18% | 142 to 143 °C |  |
| O=C(NCc1cccnc1)c1ccc2n1Cc1ccccc1N(C(=O)c1ccc([N+](=O)[O-])cc1)C2 [Example 99] | 35% |  |  |
| O=C(NCc1cccnc1)c1ccc2n1Cc1ccccc1N(C(=O)c1ccc(-c3ncccn3)cc1)C2 [Example 105] |  | 234 to 236 °C | IC50 [2]: 2480 nM; IC50 [3]: 200 nM |
| O=C(NCc1cccnc1)c1ccc2n1Cc1ccccc1N(C(=O)c1ccc(-c3cncnc3)cc1)C2 [Example 106] | 21% | 172 to 175 °C |  |
| O=C(NCc1cccnc1)c1ccc2n1Cc1ccccc1N(C(=O)c1ccc(-c3ccccn3)cc1)C2 [Example 107] |  | 159 to 161 °C | IC50 [2]: 3120 nM; IC50 [3]: 200 nM |
| O=C(NCc1cccnc1)c1ccc2n1Cc1ccccc1N(C(=O)c1ccc(-c3cccnc3)cc1)C2 [Example 108] |  | 120 to 125 °C | IC50 [2]: 9530 nM; IC50 [3]: 1800 nM |
| Cc1cccnc1-c1ccc(C(=O)N2Cc3ccc(C(=O)NCc4cccnc4)n3Cc3ccccc32)cc1 [Example 109] |  | 150 to 151 °C | IC50 [2]: 2920 nM; IC50 [3]: 300 nM |

| Compound | inhibition at 30 µM [1, 4] | melting point | other results |
| --- | --- | --- | --- |
| O=C(NCc1cccnc1)c1ccc2n1Cc1ccccc1N(C(=O)c1ccc(-n3cccn3)cc1)C2 [Example 112] |  | 107 °C | IC50 [2]: 7990 nM; IC50 [3]: 1300 nM |
| O=C(NCc1cccnc1)c1ccc2n1Cc1ccccc1N(C(=O)c1ccc(N3CCCCC3)cc1)C2 [Example 113] |  | 196 to 197 °C (dec.) | IC50 [2]: 8840 nM; IC50 [3]: 800 nM |
| O=C(NCc1cccnc1)c1ccc2n1Cc1ccccc1N(C(=O)c1cccs1)C2 [Example 115] | 34% |  |  |
| O=C(NCc1cccnc1)c1ccc2n1Cc1ccccc1N(C(=O)c1ccc(Cl)nc1)C2 [Example 117] | 24% |  |  |
| O=C(NCc1cccnc1)c1ccc2n1Cc1ccccc1N(C(=O)c1cnccn1)C2 [Example 123] | 41% |  |  |
| O=C(NCc1cccnc1)c1ccc2n1Cc1ccccc1N(C(=O)c1cccnc1)C2 [Example 124] | 7% |  |  |
| O=C(NCc1cccnc1)c1ccc2n1Cc1ccccc1N(C(=O)c1ccc(N3CCCCC3)nc1)C2 [Example 125] |  |  | inhibition at 30 µM ([1]; read-out: CRE % inhibition (μM)): 31% |
| O=C(NCc1cccnc1)c1ccc2n1Cc1ccccc1N(C(=O)c1ccc(NCCCc3ccccc3)nc1)C2 [Example 127] | 9% |  |  |
| COc1cccc(CNc2ccc(C(=O)N3Cc4ccc(C(=O)NCc5cccnc5)n4Cc4ccccc43)cn2)c1 [Example 129] | 16% |  |  |
| CN(Cc1ccccc1)c1ccc(C(=O)N2Cc3ccc(C(=O)NCc4cccnc4)n3Cc3ccccc32)cn1 [Example 130] | 26% |  |  |
| O=C(NCc1cccnc1)c1ccc2n1Cc1ccccc1N(C(=O)c1ccc(NCCO)nc1)C2 [Example 132] | 26% |  |  |
| O=C(NCc1cccnc1)c1ccc2n1Cc1ccccc1N(C(=O)c1ccc(OCc3ccccc3)nc1)C2 [Example 134] | 4% |  |  |
| CC(C)(C)c1ccc(OCC(=O)N2Cc3ccc(C(=O)NCc4cccnc4)n3Cc3ccccc32)cc1 [Example 135] | 34% | 85 °C |  |
| O=C(NCc1cccnc1)c1ccc2n1Cc1ccccc1N(C(=O)COc1ccccc1)C2 [Example 136] | 41% |  |  |
| CC(Oc1ccccc1)C(=O)N1Cc2ccc(C(=O)NCc3cccnc3)n2Cc2ccccc21 (centres unmarked) [Example 137] | 16% | 83 °C |  |
| O=C(NCc1cccnc1)c1ccc2n1Cc1ccccc1N(C(=O)CSc1ccc(Br)cc1)C2 [Example 141] | 32% |  |  |
| O=C(NCc1cccnc1)c1ccc2n1Cc1ccccc1N(C(=O)Cc1ccc(-c3ccccc3)cc1)C2 [Example 143] | 48% | 153 to 155 °C |  |
| O=C(NCc1cccnc1)c1ccc2n1Cc1ccccc1N(C(=O)/C=C/c1ccccc1)C2 [Example 144] | 35% | 175 °C |  |
| O=C(NCc1cccnc1)c1ccc2n1Cc1ccccc1N(C(=O)c1cccc3ccccc13)C2 [Example 145] | 40% | 188 °C |  |
| O=C(NCc1cccnc1)c1ccc2n1Cc1ccccc1N(C(=O)C1CCCCC1)C2 [Example 149, 10-(CYCLOHEXYLCARBONYL)-N-(PYRIDIN-3-YLMETHYL)-10,11-DIHYDRO-5H-PYRROLO[2,1-C][1,4] BENZODIAZEPINE-3-CARBOXAMIDE] | 8% |  |  |
| CC(C)C(=O)N1Cc2ccc(C(=O)NCc3cccnc3)n2Cc2ccccc21 [Example 150] | 20% |  |  |
